# In US20230398116A1, “Agent for reversing resistance to anticancer drugs” (Y'S AC CO., LTD., priority 2020, published 2023):
# Columns and labels:
# [1] = test system: endoplasmic reticulum stress signaling (DDIT3, ATF3, ATF4) in HCC70 cells; assay: qRT-PCR and immunofluorescence of endoplasmic reticulum stress markers in HCC70 cells; type: cell-based, human
# Protocol: (§1) E0771 and HCC70 cells (1×10^5) were cultured for 24 hours in RPMI1640 medium with 10% FCS on Lab-Tek chamber slides (Thermo Fisher Scientific). The cultured cells were stimulated with Alexa Fluor 488 labeled IL-26 (30 ng/ml) in the presence or absence of recombinant human and mouse EphA3-Ig for 1 hour. HCC70 cells were stimulated with IL-26 (30 ng/ml) in the presence or absence of gefitinib (40 μM), a signal inhibitor, and a neutralizing antibody for 24 hours. Subcutaneous tumor samples obtained from mice were fixed in 4% paraformaldehyde (Thermo Fisher Scientific) and embedded in OCT compound (Tissue-Tek (registered trademark), Sakura Finetek, Japan). Cells and slides were immunostained with each antibody and observed using a Zeiss inverted microscope and Axiovision 2.0 program (Carl Zeiss, Germany). The fluorescence intensity was quantified with Image-J software (NIH). The images were captured using a 100×400× objective.
# (§2) E0771 cells, HCC70 cells, and MDA-MB-468 cells were cultured in RPMI1640 medium containing 10% FCS on a 6-well plate (Corning), and then stimulated with IL-26 (30 ng/ml) in the presence or absence of gefitinib for 3, 6, or 12 hours. The cells were harvested and total RNA was extracted. cDNA was synthesized using PrimeScript II first-strand cDNA synthesis kit (TaKaRa Bio, Japan) and oligo (dT) primers. The mRNA levels were measured by 7500 System SDS software (Applied Biosystems, Foster City, CA) and normalized to hypoxanthine phosphoribosyltransferase expression levels.
# E0771 cells [2] = assay: MTT assay / cell proliferation (confluence) assay, E0771; type: cell-based, mouse
# Protocol: (§3) Human and mouse breast cancer cells (1×10^4) were cultured in 10% FCS containing RPMI1640 medium on a 96-well flat bottom plate (Corning, Tewksbury, MA) at 37° C. for 24 hours, and then stimulated with IL-26 for 48 hours in the presence or absence of EGFR-TKI (gefitinib or erlotinib) at various concentrations, a signal inhibitor, and a neutralizing antibody. HUVECs were seeded in a 96-well flat bottom plate at 5×10^3 cells/well in a 2% FBS-containing EGM medium in which growth factors were reduced by half, and cultured at 37° C. for 12 hours. Thereafter, the medium was aspirated, and a recombinant human IL-26 dimer was adjusted to a final concentration of 10 ng/mL in a 2% FBS-containing EGM medium containing no growth factors, and added to the cells. The stimulation was started in the presence or absence of control human IgG and anti-human IL-26 antibodies, and the cells were cultured for 48 hours. Thereafter, a concentration of 20 μl or 1/10 of a 5 mg/ml MTT solution (Tetrazolium monosodium salt, WST-8) was added to each well, and the plate was allowed to stand for 1 hour. The absorbance at 450 nm/595 nm was measured using Microplate Reader (Bio-Rad, Hercules, CA) and data was analyzed with Microplate Manager 6 software (Bio-Rad).
# (§4) Human and mouse breast cancer cells (1×10^4) were cultured in RPMI1640 medium containing 10% FCS for 24 hours at 37° C. on a 96-well flat bottom plate (Corning), and then stimulated with IL-26 (30 ng/ml) in the presence or absence of various concentrations of gefitinib and a neutralizing antibody. Cell proliferation was measured as cell confluence using IncuCyte ZOOM (Essen Bioscience, Ann Arbor, MI).
# T47D cells = assay: MTT assay / cell proliferation (confluence) assay, T47D; type: cell-based, human; conditions: 48 hours, FIGS. 4C, 4D
# Protocol: as §3, with “The stimulation was started in the presence or absence of control human IgG and anti-human IL-26 antibodies, and the cells were cultured for 48 hours. Thereafter, a concentration of 20 μl or 1/10 of a 5 mg/ml MTT solution (Tetrazolium monosodium salt, WST-8) was added to each well, and the plate was allowed to stand for 1 hour.” left out
# as §4
# E0771 cells [3] = assay: In vivo TNBC transplantation model (E0771 in hIL-26Tg or control mice); parameters: species or system mouse
# Protocol: E0771 cells (5×10^5) with 50% Matrigel were injected subcutaneously into the flank of hIL-26Tg mice or control mice. Tumor measurements were performed using caliper and volume was calculated using an equation (v=width×width×(length/2)). gefitinib was suspended in H2O with 1% tween (registered trademark) 80 for oral administration (50 mg/kg). Ten days after injection of E0771 cells, the oral administration once a day was performed 5 times a week. As a control, 1% tween (registered trademark) 80 containing H2O without Gefiinib was administered. The monoclonal antibody (mAb) treatment was performed by diluting anti-IL-26 mAb (clone 69-10) (Hatano R et al., MAbs (2019) 1-15, and JP 2009-99492 A) or mouse IgG1 isotype control to 1 mg/ml with sterile PBS, and by intraperitoneal injection of 200 μl (200 μg) once a day twice a week starting on day 10 after E0771 cell injection. Mice were sacrificed until subcutaneous tumor size reached 1600 mm^3. E0771 and HCC70 cells (1×10^5) were cultured for 24 hours in RPMI1640 medium with 10% FCS on Lab-Tek chamber slides (Thermo Fisher Scientific). […] Subcutaneous tumor samples obtained from mice were fixed in 4% paraformaldehyde (Thermo Fisher Scientific) and embedded in OCT compound (Tissue-Tek (registered trademark), Sakura Finetek, Japan). Cells and slides were immunostained with each antibody and observed using a Zeiss inverted microscope and Axiovision 2.0 program (Carl Zeiss, Germany). The fluorescence intensity was quantified with Image-J software (NIH). The images were captured using a 100×400× objective.
# HCC70 cells = assay: MTT assay / cell proliferation (confluence) assay, HCC70; type: cell-based, human
# Protocol: as §3, §4
# [4] = test system: endoplasmic reticulum stress signaling in E0771 cells; assay: qRT-PCR of endoplasmic reticulum stress markers in E0771 cells; type: cell-based, mouse; conditions: E0771, gefitinib 20 μM, 6 hours
# Protocol: as §2
# [5] = test system: endoplasmic reticulum stress signaling in MDA-MB-468 cells; assay: qRT-PCR of endoplasmic reticulum stress markers in MDA-MB-468 cells; type: cell-based, human; conditions: MDA-MB-468, gefitinib 20 μM, 6 hours
# Protocol: as §2
# EphA3/IL-26 interaction = target: T1, EphA3/IL-26 interaction (Homo sapiens, UniProt Q9NPH9); assay: Immunofluorescence of rhIL-26-Alexa 488 and cell surface EphA3 on E0771 cells; type: cell-based, mouse; conditions: E0771, antibodies 10 μg/ml, FIGS. 19 and 20
# T1 construct: purchased R&D Systems; host or cells: IL-26 was purchased; EphA3 is endogenous on E0771 cells
# T1 sequence (Q9NPH9 22-171): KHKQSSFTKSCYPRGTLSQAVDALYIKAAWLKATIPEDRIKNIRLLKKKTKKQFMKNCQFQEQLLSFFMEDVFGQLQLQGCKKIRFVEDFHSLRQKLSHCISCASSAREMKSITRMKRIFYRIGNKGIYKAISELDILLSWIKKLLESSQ
# Protocol: as §1
molecule,measurement,setting,value
"COc1cc2ncnc(Nc3ccc(F)c(Cl)c3)c2cc1OCCCN1CCOCC1 [gefitinib, Gefitinib, reference compound]","mRNA expression levels of IL-6, IL-8 and CXCL2, gefitinib treatment","[1]; HCC70, gefitinib 40 μM, 6 hours, FIG. 34",significantly increased
same,"expression of DDIT3 at the protein level, gefitinib treatment","[1]; HCC70, gefitinib 40 μM, 24 hours, immunocytochemical staining, FIG. 30",marked increase
same,"mRNA expression levels of DDIT3, ATF3 and ATF4, gefitinib treatment","[1]; HCC70, gefitinib 40 μM, FIG. 28",significantly increased
same,cell proliferation under gefitinib treatment,"E0771 cells [2]; E0771, 48 hours, FIGS. 2A to 2C",suppressed
same,cell proliferation under gefitinib,T47D cells,suppression of cell proliferation
same,number of Ly6G+ granulocytes infiltrating TME,"E0771 cells [3]; gefitinib-treated WT and hIL-26Tg mice compared to vehicle-treated, FIG. 40",significantly increased
same,phosphorylation of AKT in tumor cells,"E0771 cells [3]; gefitinib-treated WT mice, tumor resected 14 days after inoculation, FIG. 41",strongly suppressed
same,phosphorylation of JNK in tumor cells,"E0771 cells [3]; gefitinib-treated WT mice, tumor resected 14 days after inoculation, FIG. 42",strongly suppressed
same,tumor growth in hIL-26Tg mice,"E0771 cells [3]; hIL-26Tg mice, gefitinib 50 mg/kg oral gavage, FIG. 35",tumor suppression by gefitinib was significantly inhibited
same,tumor growth in control mice,"E0771 cells [3]; littermate control (WT) mice, gefitinib 50 mg/kg oral gavage once a day, five times a week, FIG. 35",suppressed
same,cell proliferation under gefitinib treatment,"HCC70 cells; HCC70, 48 hours, FIGS. 3A to 3C",suppressed
same,"mRNA expression levels of DDIT3, ATF3 and ATF4, gefitinib treatment",[4]; FIG. 29,significantly increased
same,"mRNA expression levels of endoplasmic reticulum stress-related cytokines/chemokines, gefitinib treatment",[4]; FIG. 34,significantly increased
same,"mRNA expression levels of DDIT3, ATF3 and ATF4, gefitinib treatment",[5]; FIG. 29,significantly increased
same,"mRNA expression levels of IL-6, IL-8 and CXCL2, gefitinib treatment",[5]; FIG. 34,significantly increased
"69-10: mouse anti-human IL-26 monoclonal antibody, clone 69-10, from deposited hybridoma (antibody, V domains shown) VH: QVTLKESGPGILKPSQTLSLTCSFSGFSLSTSGMGVGWIRQPSGKGLEWLAHIWWDDDKYYNPSLKSQLTISKDTSRNQVFLKITSVDTADTATYYCVRGGITATHYYAMDYWGQGTSVTVSS VL: DIQMTQSPASQSASLGESVTISCLASQTIGTWLSWYQQKPGKSPQLLIYAATSLADGVPSRFSGSGSGTKFSFKISSLQAEDFVSYYCQQLYSSPWTFGGGTKLEIK",inhibition of the decrease in expression of DDIT3 at the protein level by IL-26 together with gefitinib,"[1]; HCC70, 24 hours, antibodies 50 μg/ml, FIG. 32 lower",significantly inhibited
same,inhibitory effect compared with anti-EphA3 pAb,[1]; HCC70 cells treated with gefitinib and IL-26,stronger than that of anti-EphA315 pAb
same,reversal of effect of IL-26 on gefitinib-induced DDIT3 expression and mitochondrial membrane depolarization,"[1]; HCC70 cells treated with gefitinib and IL-26, FIGS. 32 and 33",reversed the effect of IL-26
same,reversal of inhibitory effect of IL-26 on gefitinib-induced suppression of cell proliferation (MTT),"E0771 cells [2]; E0771, IL-26 30 ng/ml, gefitinib 20 μM, antibody 20 μg/ml, 48 hours, FIG. 5D",reversed the inhibitory effect of IL-26 on gefitinib-induced suppression of cell proliferation
same,reversal of effect of IL-26 on gefitinib-induced suppression of cell proliferation (percent confluence),"E0771 cells [2]; E0771, gefitinib 15 μM and IL-26, antibody 10 μg/ml (mixture 2.5 μg/ml each), FIG. 11",reversed the effect of IL-26 on gefitinib-induced suppression of cell proliferation
same,"tumor growth, anti-IL-26 mAb and gefitinib","E0771 cells [3]; hIL-26Tg mice, clone 69-10 200 μg/dose i.p. twice a week with gefitinib, compared to gefitinib alone, FIG. 36",significantly reduced
same,"tumor growth, anti-IL-26 mAb alone","E0771 cells [3]; hIL-26Tg mice, not illustrated",no effect on tumor growth
same,reversal of inhibitory effect of IL-26 on gefitinib-induced suppression of cell proliferation,"HCC70 cells; HCC70, IL-26 30 ng/ml, gefitinib 40 μM, 48 hours, MTT, FIG. 59",reversed the inhibitory effect of IL-26 on gefitinib-induced suppression of cell proliferation in an antibody dose-dependent manner
same,inhibition of colocalization of IL-26 with EphA3 (EphA3/IL-26 interaction),EphA3/IL-26 interaction,significantly inhibited
